What was measured:
[1] = target: T1, Ephrin type-B receptor 3 (Homo sapiens) (UniProt P54753); test: Selectivity interaction (Kinase panel (DSF assay)) EUB0001558a EPHB3
T1 sequence (whole entry): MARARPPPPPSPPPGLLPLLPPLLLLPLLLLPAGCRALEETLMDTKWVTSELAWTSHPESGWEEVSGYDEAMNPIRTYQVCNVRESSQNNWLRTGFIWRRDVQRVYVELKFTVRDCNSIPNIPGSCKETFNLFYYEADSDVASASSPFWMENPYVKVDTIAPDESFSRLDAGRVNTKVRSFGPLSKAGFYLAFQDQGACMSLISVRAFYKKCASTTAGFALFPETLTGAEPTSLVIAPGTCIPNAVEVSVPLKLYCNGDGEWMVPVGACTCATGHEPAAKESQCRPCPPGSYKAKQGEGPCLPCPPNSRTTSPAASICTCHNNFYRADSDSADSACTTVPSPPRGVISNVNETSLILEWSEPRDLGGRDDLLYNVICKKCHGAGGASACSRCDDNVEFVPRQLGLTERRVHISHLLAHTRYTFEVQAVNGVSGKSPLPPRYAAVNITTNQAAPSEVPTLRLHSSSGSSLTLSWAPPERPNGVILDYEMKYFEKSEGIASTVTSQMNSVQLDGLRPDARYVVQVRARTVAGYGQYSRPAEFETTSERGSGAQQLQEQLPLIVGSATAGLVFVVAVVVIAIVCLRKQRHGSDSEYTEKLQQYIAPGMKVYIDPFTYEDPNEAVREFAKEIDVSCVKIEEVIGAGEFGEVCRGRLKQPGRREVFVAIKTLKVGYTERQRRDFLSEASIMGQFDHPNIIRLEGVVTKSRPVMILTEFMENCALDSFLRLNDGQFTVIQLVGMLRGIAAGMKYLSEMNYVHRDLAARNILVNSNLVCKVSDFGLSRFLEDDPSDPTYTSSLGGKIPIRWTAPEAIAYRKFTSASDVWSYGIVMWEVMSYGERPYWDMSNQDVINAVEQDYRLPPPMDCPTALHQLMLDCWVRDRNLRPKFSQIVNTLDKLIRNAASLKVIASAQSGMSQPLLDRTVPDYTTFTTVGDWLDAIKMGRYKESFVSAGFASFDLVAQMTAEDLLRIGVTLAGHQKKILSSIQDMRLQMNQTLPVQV

[2] = target: T2, Serine/threonine-protein kinase TAO3 (Homo sapiens) (UniProt Q9H2K8); test: Selectivity interaction (ActivX KiNativ screen (kinase selectivity in THP-1 cell lysates)) EUB0000639a TAOK3; assay type: subcellular; conditions: lysate
T2 sequence (whole entry): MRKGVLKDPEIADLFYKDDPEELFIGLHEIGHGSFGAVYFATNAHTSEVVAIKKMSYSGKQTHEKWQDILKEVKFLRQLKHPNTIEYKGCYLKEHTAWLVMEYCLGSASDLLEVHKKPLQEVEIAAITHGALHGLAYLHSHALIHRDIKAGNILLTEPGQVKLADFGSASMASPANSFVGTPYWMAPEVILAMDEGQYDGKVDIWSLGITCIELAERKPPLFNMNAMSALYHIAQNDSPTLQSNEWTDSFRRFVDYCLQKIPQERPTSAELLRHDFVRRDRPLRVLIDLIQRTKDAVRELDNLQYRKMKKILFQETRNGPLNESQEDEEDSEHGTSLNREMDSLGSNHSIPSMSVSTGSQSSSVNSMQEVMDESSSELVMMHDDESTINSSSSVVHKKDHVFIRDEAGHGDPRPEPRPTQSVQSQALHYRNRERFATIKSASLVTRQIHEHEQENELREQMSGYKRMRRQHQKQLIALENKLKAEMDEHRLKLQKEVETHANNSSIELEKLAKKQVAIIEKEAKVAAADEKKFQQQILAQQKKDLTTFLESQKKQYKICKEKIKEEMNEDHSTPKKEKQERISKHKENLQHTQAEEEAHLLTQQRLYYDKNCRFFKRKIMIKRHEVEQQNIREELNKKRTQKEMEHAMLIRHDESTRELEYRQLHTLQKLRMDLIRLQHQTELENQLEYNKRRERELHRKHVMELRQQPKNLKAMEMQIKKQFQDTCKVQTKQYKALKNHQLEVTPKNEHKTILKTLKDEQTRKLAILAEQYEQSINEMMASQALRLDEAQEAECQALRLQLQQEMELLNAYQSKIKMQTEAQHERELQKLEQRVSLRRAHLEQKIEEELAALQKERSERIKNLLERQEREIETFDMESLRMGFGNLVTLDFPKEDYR

[3] = target: Ribosomal protein S6 kinase alpha-5 (Homo sapiens) (UniProt O75582); test: Selectivity interaction (KinomeScan (DiscoverX)) EUB0000045b RPS6KA5; conditions: at 10 µM
Sequence of Ribosomal protein S6 kinase alpha-5 (Homo sapiens) (O75582 whole entry, looked up): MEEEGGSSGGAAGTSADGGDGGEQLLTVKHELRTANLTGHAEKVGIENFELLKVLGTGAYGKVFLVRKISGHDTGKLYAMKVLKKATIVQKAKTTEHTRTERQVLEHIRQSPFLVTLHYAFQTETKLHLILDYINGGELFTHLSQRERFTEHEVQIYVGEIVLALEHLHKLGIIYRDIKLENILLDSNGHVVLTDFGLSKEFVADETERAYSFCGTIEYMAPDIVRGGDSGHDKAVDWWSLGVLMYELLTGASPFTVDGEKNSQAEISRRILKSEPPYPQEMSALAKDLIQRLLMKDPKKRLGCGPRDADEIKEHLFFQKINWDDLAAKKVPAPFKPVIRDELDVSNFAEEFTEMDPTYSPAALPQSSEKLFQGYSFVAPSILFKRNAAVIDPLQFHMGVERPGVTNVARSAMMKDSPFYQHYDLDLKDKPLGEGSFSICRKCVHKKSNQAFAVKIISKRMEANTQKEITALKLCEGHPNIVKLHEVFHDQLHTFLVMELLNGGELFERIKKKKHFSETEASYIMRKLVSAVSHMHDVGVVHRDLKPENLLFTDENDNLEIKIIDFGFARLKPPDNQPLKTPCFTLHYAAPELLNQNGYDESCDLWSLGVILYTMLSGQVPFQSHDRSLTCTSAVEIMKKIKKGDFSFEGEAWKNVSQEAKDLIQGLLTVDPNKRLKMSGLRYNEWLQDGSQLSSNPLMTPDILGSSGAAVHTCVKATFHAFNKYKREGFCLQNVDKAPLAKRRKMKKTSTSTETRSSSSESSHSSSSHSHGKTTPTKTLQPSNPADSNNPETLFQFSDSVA

[4] = target: Ribosomal protein S6 kinase alpha-4 (Homo sapiens) (UniProt O75676); test: Selectivity interaction (KinomeScan (DiscoverX)) EUB0000655a RPS6KA4; conditions: at 10 µM
Sequence of Ribosomal protein S6 kinase alpha-4 (Homo sapiens) (O75676 whole entry, looked up): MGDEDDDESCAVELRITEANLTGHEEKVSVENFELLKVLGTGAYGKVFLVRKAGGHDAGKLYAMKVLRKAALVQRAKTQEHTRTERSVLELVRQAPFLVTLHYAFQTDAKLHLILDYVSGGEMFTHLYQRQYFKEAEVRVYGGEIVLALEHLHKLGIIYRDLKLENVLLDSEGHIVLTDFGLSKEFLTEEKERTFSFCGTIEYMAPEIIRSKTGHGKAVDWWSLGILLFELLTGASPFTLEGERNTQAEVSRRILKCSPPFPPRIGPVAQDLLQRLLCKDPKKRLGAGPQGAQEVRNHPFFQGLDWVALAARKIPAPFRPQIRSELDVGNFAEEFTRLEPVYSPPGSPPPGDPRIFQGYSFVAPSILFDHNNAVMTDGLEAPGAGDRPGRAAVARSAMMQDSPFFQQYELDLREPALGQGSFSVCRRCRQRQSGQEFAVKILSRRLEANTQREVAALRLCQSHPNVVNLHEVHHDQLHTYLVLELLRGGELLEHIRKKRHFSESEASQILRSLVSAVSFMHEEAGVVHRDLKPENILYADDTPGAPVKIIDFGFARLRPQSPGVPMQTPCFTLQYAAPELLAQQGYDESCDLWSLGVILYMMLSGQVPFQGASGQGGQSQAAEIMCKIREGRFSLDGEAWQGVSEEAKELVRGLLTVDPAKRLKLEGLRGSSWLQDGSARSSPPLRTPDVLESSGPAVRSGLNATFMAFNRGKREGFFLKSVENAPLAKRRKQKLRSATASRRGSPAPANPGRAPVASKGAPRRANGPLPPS

[5] = target: Casein kinase II subunit alpha' (Homo sapiens) (UniProt P19784); test: Selectivity interaction (KinomeScan (DiscoverX)) EUB0000607a CSNK2A2; conditions: at 10 µM
Sequence of Casein kinase II subunit alpha' (Homo sapiens) (P19784 whole entry, looked up): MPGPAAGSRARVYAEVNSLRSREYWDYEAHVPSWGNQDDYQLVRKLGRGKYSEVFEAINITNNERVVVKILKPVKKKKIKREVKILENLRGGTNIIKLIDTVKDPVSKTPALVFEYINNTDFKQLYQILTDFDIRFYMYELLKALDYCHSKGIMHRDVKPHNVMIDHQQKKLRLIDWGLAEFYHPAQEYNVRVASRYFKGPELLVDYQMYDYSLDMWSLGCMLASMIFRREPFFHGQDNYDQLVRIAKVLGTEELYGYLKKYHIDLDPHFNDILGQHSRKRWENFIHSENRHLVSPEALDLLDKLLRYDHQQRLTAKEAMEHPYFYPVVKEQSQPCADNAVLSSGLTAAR

[6] = target: T3, Hormonally up-regulated neu tumor-associated kinase (Homo sapiens) (UniProt P57058); test: Selectivity interaction (LanthaScreen Eu Kinase Binding Assay) EUB0001632a HUNK; conditions: at 10 µM
T3 sequence (whole entry): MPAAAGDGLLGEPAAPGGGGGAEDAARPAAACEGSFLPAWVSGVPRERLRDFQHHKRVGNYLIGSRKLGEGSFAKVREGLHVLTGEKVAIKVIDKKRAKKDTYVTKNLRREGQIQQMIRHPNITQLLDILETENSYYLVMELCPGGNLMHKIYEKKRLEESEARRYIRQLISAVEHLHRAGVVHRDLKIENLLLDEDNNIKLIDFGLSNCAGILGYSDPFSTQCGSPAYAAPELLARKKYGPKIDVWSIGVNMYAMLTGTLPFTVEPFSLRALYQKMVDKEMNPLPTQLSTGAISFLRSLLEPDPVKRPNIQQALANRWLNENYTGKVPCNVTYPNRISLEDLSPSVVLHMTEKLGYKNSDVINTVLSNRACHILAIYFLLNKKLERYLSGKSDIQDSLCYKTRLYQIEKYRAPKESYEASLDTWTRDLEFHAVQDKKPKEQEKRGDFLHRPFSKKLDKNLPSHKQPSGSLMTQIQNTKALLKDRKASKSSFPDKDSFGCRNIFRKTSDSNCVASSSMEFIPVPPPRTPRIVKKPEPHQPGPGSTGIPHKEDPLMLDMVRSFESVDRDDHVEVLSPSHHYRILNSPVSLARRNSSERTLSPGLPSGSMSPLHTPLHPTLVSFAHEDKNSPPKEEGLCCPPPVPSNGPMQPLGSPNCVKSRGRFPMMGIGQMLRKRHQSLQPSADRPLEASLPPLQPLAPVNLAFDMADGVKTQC

For CC(C)(O)[C@H](F)CN1Cc2cc(NC(=O)c3cnn4cccnc34)c(N3CCOCC3)cc2C1=O, the dTM [1] was 2.1 K.

In the case of CC[C@@H]1[C@H](F)C(=O)N[C@@H]1COc1nccc2cc(C(N)=O)c(OC)cc12 [ZIMLOVISERTIB], the % of inhibition ([2]; at 0.01 µM) was 6.6%, the % of inhibition ([2]; at 0.04 µM) was -1.6% and the % of inhibition ([2]; at 0.2 µM) was 6.9%. For the same compound, the % of inhibition ([2]; at 1 µM) was 12.9% and the % of inhibition ([2]; at 5 µM) was 41.7%.

C=CC(=O)Nc1cc(-n2c(=O)ccc3cnc4ccc(-c5ccc(NS(C)(=O)=O)cc5)cc4c32)ccc1C showed a % of control [3] of 80%.

In the case of CN(C)CCOc1ccc(-c2nc(-c3ccncc3)c(-c3ccc4c(c3)CC/C4=N\O)[nH]2)cc1, the % of control [4] was 81%.

CNC(=O)Nc1ccc(-c2nc(N3CC4CCC(C3)O4)c3cnn(C4CCC5(CC4)OCCO5)c3n2)cc1 showed a % of control [5] of 100%.

Compound Cn1cc(-n2cnc3c(NCc4nc5cc(Cl)c(Cl)cc5[nH]4)nc(N4CCOCC4)nc32)cn1 has a % of inhibition [6] of -12%.

From ChEMBL document CHEMBL5465560, “Selectivity Literature for EUbOPEN Chemogenomic Library” (2024)
